Reference: the kinase profiling compilation of Christmann-Franck et al. (2016)

Experiments:
Test in all cases: radiometric filter-binding kinase assay, Kinase HotSpot
Settings in all cases: compound 0.5 µM; ATP 10 µM
[1] = target: MATK (human) (UniProt P42679)
[2] = target: FGR (human) (UniProt P09769)
[3] = target: DAPK2 (human) (UniProt Q9UIK4)
[4] = target: BLK (human) (UniProt P51451)
[5] = target: EPHA1 (human) (UniProt P21709)
[6] = target: NTRK3 (human) (UniProt Q16288)
[7] = target: PTK2 (human) (UniProt Q05397)
[8] = target: DMPK (human) (UniProt Q09013)
[9] = target: PAK3 (human) (UniProt O75914)
[10] = target: STK4 (human) (UniProt Q13043)
[11] = target: TEK (human) (UniProt Q02763)
[12] = target: WNK3 (human) (UniProt Q9BYP7)
[13] = target: MAPK9 (human) (UniProt P45984)
[14] = target: YES1 (human) (UniProt P07947)
[15] = target: CDK1 CCNA2 (human) (UniProt P06493+P20248)
[16] = target: AXL (human) (UniProt P30530)
Sequence of AXL (human) (P30530 whole entry, looked up): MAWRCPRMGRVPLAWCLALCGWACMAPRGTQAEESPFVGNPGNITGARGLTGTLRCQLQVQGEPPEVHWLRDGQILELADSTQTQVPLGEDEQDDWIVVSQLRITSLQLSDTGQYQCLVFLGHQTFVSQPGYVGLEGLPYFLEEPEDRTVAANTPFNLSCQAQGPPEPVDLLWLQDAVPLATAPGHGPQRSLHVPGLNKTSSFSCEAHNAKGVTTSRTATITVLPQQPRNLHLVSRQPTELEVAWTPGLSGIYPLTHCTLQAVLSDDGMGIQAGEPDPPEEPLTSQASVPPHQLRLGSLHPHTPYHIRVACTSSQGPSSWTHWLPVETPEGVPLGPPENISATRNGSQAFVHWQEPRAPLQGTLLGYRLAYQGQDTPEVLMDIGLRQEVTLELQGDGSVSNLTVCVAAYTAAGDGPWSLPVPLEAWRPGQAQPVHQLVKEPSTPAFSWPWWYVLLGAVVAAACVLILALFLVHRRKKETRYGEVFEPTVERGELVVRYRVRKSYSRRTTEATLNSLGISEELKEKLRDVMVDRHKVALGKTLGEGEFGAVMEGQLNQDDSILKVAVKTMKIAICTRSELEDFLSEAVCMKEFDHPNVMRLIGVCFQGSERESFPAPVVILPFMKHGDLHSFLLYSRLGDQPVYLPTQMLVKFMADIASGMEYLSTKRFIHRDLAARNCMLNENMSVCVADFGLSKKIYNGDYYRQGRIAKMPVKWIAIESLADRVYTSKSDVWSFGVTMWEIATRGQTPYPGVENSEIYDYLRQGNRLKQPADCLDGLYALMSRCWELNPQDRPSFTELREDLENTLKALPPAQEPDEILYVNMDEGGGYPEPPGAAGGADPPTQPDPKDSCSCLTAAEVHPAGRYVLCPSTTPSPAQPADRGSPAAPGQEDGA

[17] = target: GRK4 (human) (UniProt P32298)
[18] = target: FGFR1 (human) (UniProt P11362)
[19] = target: PRKCI (human) (UniProt P41743)
Sequence of PRKCI (human) (P41743 whole entry, looked up): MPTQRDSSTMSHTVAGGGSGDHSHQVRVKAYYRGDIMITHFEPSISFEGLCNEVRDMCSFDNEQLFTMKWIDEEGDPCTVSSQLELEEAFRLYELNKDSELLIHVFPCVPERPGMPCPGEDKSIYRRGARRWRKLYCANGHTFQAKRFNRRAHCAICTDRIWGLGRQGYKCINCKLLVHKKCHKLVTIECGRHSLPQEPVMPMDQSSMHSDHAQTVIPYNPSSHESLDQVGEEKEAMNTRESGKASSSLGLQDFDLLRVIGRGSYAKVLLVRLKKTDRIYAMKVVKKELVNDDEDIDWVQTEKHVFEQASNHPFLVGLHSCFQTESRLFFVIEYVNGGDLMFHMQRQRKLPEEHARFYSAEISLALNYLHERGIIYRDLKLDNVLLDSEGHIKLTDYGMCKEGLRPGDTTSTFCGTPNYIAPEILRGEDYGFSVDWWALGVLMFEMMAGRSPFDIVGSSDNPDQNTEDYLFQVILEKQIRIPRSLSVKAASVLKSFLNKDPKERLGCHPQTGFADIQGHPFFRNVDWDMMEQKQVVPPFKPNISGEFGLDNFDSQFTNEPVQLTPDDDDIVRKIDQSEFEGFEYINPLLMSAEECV

[20] = target: KIT (human) (UniProt P10721)
[21] = target: MAP2K1 (human) (UniProt Q02750)
[22] = target: CAMK4 (human) (UniProt Q16566)
[23] = target: KDR (human) (UniProt P35968)
[24] = target: NTRK1 (human) (UniProt P04629)
Sequence of NTRK1 (human) (P04629 whole entry, looked up): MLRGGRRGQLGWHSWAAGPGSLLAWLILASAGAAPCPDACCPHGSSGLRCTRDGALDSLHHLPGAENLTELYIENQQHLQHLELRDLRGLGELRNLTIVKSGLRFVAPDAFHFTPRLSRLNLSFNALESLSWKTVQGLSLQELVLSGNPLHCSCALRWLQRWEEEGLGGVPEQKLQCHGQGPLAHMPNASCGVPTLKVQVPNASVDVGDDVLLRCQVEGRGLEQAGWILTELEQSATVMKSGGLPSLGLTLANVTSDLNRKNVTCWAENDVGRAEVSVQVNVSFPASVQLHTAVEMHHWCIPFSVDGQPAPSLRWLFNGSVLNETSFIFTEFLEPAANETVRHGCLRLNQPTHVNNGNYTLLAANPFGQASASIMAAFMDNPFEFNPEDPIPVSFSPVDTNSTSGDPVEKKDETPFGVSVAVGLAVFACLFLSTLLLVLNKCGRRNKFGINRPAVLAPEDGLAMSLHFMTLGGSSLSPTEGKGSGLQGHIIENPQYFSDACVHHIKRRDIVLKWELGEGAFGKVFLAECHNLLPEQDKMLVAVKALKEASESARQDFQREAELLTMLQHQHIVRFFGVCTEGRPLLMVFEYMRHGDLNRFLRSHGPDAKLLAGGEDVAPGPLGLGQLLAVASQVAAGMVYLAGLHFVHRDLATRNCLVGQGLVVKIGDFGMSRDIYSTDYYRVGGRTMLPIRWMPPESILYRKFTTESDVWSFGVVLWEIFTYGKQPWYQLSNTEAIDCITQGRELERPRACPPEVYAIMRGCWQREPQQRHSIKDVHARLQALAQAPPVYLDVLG

[25] = target: JAK2 JH1 JH2 (human) (UniProt O60674)
[26] = target: PRKCG (human) (UniProt P05129)
[27] = target: DYRK2 (human) (UniProt Q92630)
[28] = target: PLK3 (human) (UniProt Q9H4B4)
[29] = target: LIMK1 (human) (UniProt P53667)
[30] = target: BRSK1 (human) (UniProt Q8TDC3)
[31] = target: CAMK2G (human) (UniProt Q13555)
[32] = target: IKBKB (human) (UniProt O14920)
[33] = target: AURKA (human) (UniProt O14965)
[34] = target: EPHA8 (human) (UniProt P29322)
[35] = target: PIM2 (human) (UniProt Q9P1W9)
Sequence of PIM2 (human) (Q9P1W9 whole entry, looked up): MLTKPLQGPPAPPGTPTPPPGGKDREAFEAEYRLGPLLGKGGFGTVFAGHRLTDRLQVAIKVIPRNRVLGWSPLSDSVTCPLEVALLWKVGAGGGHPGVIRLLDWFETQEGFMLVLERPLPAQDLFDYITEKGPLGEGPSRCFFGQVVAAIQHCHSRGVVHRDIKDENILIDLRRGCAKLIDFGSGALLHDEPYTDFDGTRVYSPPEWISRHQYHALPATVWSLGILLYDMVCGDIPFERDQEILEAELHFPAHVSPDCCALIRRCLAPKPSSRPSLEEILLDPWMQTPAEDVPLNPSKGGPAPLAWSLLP

[36] = target: EPHA2 (human) (UniProt P29317)
[37] = target: CHEK2 (human) (UniProt O96017)
[38] = target: RPS6KA1 KD1 KD2 (human) (UniProt Q15418)
[39] = target: MERTK (human) (UniProt Q12866)
Sequence of MERTK (human) (Q12866 whole entry, looked up): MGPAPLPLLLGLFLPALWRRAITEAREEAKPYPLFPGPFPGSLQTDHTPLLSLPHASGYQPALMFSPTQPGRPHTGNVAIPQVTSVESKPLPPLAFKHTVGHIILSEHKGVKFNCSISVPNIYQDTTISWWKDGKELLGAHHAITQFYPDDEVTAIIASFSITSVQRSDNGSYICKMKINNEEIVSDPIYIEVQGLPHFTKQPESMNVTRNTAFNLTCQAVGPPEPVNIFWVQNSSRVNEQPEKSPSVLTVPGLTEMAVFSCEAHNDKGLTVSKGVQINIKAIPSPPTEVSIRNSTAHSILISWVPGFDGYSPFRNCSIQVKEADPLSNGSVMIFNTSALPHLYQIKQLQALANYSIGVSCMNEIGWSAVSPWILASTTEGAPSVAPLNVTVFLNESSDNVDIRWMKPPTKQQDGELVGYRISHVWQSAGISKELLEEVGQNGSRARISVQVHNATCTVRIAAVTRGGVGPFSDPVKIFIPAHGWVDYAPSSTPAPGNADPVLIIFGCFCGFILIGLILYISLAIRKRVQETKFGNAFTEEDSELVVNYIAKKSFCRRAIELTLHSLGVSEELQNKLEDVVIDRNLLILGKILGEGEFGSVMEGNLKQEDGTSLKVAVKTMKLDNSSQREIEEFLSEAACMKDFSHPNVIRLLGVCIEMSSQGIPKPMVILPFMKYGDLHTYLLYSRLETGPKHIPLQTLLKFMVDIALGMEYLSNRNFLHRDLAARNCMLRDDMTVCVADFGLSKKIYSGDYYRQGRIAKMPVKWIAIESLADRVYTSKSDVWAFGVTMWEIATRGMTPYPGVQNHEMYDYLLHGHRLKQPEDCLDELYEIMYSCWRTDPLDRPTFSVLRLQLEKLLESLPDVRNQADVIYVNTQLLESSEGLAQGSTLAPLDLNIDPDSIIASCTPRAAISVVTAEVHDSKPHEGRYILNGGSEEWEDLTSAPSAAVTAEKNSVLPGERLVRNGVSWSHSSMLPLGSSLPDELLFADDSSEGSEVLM

[40] = target: ABL2 (human) (UniProt P42684)
[41] = target: PAK4 (human) (UniProt O96013)
[42] = target: FLT1 (human) (UniProt P17948)

Sequence of DAPK2 (human) (Q9UIK4 whole entry, looked up): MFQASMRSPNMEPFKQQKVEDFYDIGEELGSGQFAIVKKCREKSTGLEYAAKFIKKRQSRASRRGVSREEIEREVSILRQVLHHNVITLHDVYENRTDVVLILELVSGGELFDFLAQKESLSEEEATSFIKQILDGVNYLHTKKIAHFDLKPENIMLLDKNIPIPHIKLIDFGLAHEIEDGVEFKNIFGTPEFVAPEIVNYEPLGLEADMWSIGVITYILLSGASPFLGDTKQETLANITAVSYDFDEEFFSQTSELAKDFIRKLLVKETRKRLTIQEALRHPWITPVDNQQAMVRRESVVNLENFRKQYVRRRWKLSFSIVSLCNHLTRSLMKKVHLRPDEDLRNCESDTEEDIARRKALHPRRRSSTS
Sequence of BLK (human) (P51451 whole entry, looked up): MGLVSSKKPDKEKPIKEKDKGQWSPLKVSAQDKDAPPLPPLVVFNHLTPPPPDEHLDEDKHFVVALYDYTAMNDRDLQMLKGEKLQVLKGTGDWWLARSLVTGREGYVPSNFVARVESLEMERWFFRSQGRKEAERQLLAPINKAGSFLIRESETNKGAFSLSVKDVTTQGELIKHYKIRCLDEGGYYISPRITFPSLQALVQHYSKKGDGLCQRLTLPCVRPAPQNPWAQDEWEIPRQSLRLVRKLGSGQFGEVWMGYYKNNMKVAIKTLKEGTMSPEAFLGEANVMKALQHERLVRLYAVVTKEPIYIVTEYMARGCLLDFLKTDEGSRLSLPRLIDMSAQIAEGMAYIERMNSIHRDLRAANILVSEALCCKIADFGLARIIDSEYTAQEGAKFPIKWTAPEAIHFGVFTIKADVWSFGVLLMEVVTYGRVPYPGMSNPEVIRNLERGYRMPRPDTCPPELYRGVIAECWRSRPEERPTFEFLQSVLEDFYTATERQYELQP
Sequence of MATK (human) (P42679 whole entry, looked up): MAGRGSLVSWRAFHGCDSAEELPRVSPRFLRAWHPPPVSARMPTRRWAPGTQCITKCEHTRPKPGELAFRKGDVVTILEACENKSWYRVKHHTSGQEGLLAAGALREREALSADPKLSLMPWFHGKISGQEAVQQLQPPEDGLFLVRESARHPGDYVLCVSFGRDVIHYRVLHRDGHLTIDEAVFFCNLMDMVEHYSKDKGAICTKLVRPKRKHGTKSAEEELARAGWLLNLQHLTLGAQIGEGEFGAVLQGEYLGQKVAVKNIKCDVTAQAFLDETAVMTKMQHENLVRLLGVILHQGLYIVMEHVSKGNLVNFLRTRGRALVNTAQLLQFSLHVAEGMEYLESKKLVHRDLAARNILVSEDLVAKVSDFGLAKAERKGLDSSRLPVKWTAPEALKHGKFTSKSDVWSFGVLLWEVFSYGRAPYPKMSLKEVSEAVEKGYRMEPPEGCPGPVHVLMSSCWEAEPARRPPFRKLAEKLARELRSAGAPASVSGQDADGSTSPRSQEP

NC(=O)c1ccc(N(C(N)=O)c2c(F)cccc2F)nc1-c1ccc(F)cc1F
residual activity [1]: 77.6% | residual activity [2]: 94.7% | residual activity [3]: 86.8% | residual activity [4]: 100% | residual activity [5]: 99.1% | residual activity [6]: 95.9% | residual activity [7]: 98.9% | residual activity [8]: 104% | residual activity [9]: 98.3% | residual activity [10]: 101% | residual activity [11]: 96.7% | residual activity [12]: 96.6% | residual activity [13]: 93.5% | residual activity [14]: 97.8% | residual activity [15]: 101% | residual activity [16]: 101% | residual activity [17]: 90.7% | residual activity [18]: 99% | residual activity [19]: 99.1% | residual activity [20]: 97.7% | residual activity [21]: 89% | residual activity [22]: 91.9% | residual activity [23]: 96.5% | residual activity [24]: 96.3% | residual activity [25]: 107% | residual activity [26]: 91.3% | residual activity [27]: 102% | residual activity [28]: 94.7% | residual activity [29]: 98.5% | residual activity [30]: 94.2% | residual activity [31]: 105% | residual activity [32]: 94.8% | residual activity [33]: 86.4% | residual activity [34]: 98.7% | residual activity [35]: 98.3% | residual activity [36]: 89% | residual activity [37]: 97.6% | residual activity [38]: 109% | residual activity [39]: 114% | residual activity [40]: 100% | residual activity [41]: 92.6% | residual activity [42]: 102%

CC(C)[C@H](CO)Nc1nc(Nc2cccc(Cl)c2)c2ncn(C(C)C)c2n1
residual activity [1]: 93.1% | residual activity [2]: 44.3% | residual activity [3]: 111% | residual activity [4]: 68.8% | residual activity [5]: 98.3% | residual activity [6]: 15% | residual activity [7]: 85.9% | residual activity [8]: 108% | residual activity [9]: 94.2% | residual activity [10]: 87.7% | residual activity [11]: 93.8% | residual activity [12]: 89.1% | residual activity [13]: 102% | residual activity [14]: 21.2% | residual activity [15]: 31.7% | residual activity [16]: 94.7% | residual activity [17]: 91.1% | residual activity [18]: 80.6% | residual activity [19]: 96.6% | residual activity [20]: 91% | residual activity [21]: 96% | residual activity [22]: 95.3% | residual activity [23]: 95% | residual activity [24]: 67.3% | residual activity [25]: 97.7% | residual activity [26]: 98.2% | residual activity [27]: 98.4% | residual activity [28]: 86.4% | residual activity [29]: 86.3% | residual activity [30]: 100% | residual activity [31]: 96.9% | residual activity [32]: 107% | residual activity [33]: 80.6% | residual activity [34]: 102% | residual activity [35]: 105% | residual activity [36]: 89.5% | residual activity [37]: 88.1% | residual activity [38]: 77.3% | residual activity [39]: 84.7% | residual activity [40]: 32.2% | residual activity [41]: 99.5% | residual activity [42]: 102%

Oc1ccc(-c2nc(-c3ccc(F)cc3)c(-c3ccncc3)[nH]2)cc1
residual activity [1]: 90.3% | residual activity [2]: 93% | residual activity [3]: 96.8% | residual activity [4]: 101% | residual activity [5]: 94.4% | residual activity [6]: 101% | residual activity [7]: 96.9% | residual activity [8]: 106% | residual activity [9]: 98.7% | residual activity [10]: 105% | residual activity [11]: 99.6% | residual activity [12]: 101% | residual activity [13]: 93.4% | residual activity [14]: 84.7% | residual activity [15]: 90.9% | residual activity [16]: 99.8% | residual activity [17]: 98.5% | residual activity [18]: 86.8% | residual activity [19]: 93.4% | residual activity [20]: 97.7% | residual activity [21]: 93% | residual activity [22]: 102% | residual activity [23]: 99.9% | residual activity [24]: 105% | residual activity [25]: 96.2% | residual activity [26]: 87.9% | residual activity [27]: 99.3% | residual activity [28]: 96.2% | residual activity [29]: 91.4% | residual activity [30]: 101% | residual activity [31]: 101% | residual activity [32]: 110% | residual activity [33]: 96.1% | residual activity [34]: 93.6% | residual activity [35]: 106% | residual activity [36]: 91.3% | residual activity [37]: 98.9% | residual activity [38]: 98.1% | residual activity [39]: 85.2% | residual activity [40]: 91.1% | residual activity [41]: 98.6% | residual activity [42]: 90.6%

COc1cc2nccc(Oc3ccc(NC(=S)NC(=O)c4ccccc4C)cc3)c2cc1OC
residual activity [1]: 93% | residual activity [2]: 21.2% | residual activity [3]: 78.7% | residual activity [4]: 8.59% | residual activity [5]: 83% | residual activity [6]: 86.1% | residual activity [7]: 90.7% | residual activity [8]: 102% | residual activity [9]: 99.7% | residual activity [10]: 95.6% | residual activity [11]: 90.1% | residual activity [12]: 101% | residual activity [13]: 82.7% | residual activity [14]: 23.8% | residual activity [15]: 91.6% | residual activity [16]: 80.4% | residual activity [17]: 95.9% | residual activity [18]: 75.7% | residual activity [19]: 99.9% | residual activity [20]: 34.5% | residual activity [21]: 88.3% | residual activity [22]: 103% | residual activity [23]: 74.1% | residual activity [24]: 82.5% | residual activity [25]: 97.7% | residual activity [26]: 100% | residual activity [27]: 87.5% | residual activity [28]: 92.1% | residual activity [29]: 82.7% | residual activity [30]: 87% | residual activity [31]: 103% | residual activity [32]: 99.4% | residual activity [33]: 18.9% | residual activity [34]: 84.1% | residual activity [35]: 117% | residual activity [36]: 86.9% | residual activity [37]: 67% | residual activity [38]: 97.3% | residual activity [39]: 32.3% | residual activity [40]: 74.1% | residual activity [41]: 100% | residual activity [42]: 89.8%
